inhibition, anti-rotavirus activity and anti-RS virus activity data for 12 compounds are collected here from patent US6800629B2, “Pyrazine derivatives or salts thereof, pharmaceutical composition containing the same, and production intermediates thereof” (priority 2000, dated 2004).

Common to all, as to format: cell-based
The subject of assay [1] is influenza virus (A/PR/8/34 strain). Nature of the assay: Anti-influenza virus activity, plaque inhibition in MDCK cells. Conditions: PR/8, MDCK; for inhibition at 10 µg/mL / inhibition at 100 µg/mL: 72 h, read-out: Inhibitory rate.
The test system of assay [2] is Rotavirus (Ku strain). The assay is described as follows: Anti-rotavirus activity, plaque inhibition in MA-104 cells. Conditions: 30 μg/mL of test compound, plaque count.
Assay [3] deals with RS virus (A-2 strain). The assay is described as follows: Anti-RS virus (respiratory syncytial virus) activity, plaque inhibition in HEp-2 cells. Conditions: 30 μg/mL of test compound, plaque count.

In the case of `NC(=O)c1nc(F)cnc1O` [6-fluoro-3-hydroxy-2-pyrazinecarboxamide], the inhibition at 1 µg/mL in assay [1] (read-out: plaque inhibitory rate) was 100%.
`NC(=O)c1nccn([C@@H]2O[C@H](COC(=O)c3ccccc3)[C@@H](OC(=O)c3ccccc3)[C@H]2OC(=O)c2ccccc2)c1=O` [Example I-1, [(2R,3R,4R,5R)-5-[3-(aminocarbonyl)-2-oxo-1(2H)-pyrazinyl]-3,4-bis(benzoyloxy)tetrahydro-2-furanyl]methyl benzoate]: in assay [2], the anti-rotavirus activity result is recorded as “shows an anti-rotavirus activity”.
For `NC(=O)c1nccn([C@@H]2O[C@H](CO)[C@@H](O)[C@H]2O)c1=O` [Example I-2, 4-[(2R,3R,4S,5R)-3,4-dihydroxy-5-(hydroxymethyl)tetrahydro-2-furanyl]-3-oxo-3,4-dihydro-2-pyrazinecarboxamide], the inhibition at 10 µg/mL in assay [1] is 95%.
For the compound `NC(=O)c1nccn(C2C[C@H](O)[C@@H](CO)O2)c1=O` (stereo partly drawn) [Example I-4, 4-[(4S,5R)-4-hydroxy-5-(hydroxymethyl)tetrahydro-2-furanyl]-3-oxo-3,4-dihydro-2-pyrazinecarboxamide], the inhibition at 100 µg/mL in assay [1] stood at 80%.
Take `NC(=O)c1nc(F)cn([C@@H]2O[C@H](CO)[C@@H](O)[C@H]2O)c1=O` [Example I-6, 4-[(2R,3R,4S,5R)-3,4-dihydroxy-5-(hydroxymethyl)tetrahydro-2-furanyl]-6-fluoro-3-oxo-3,4-dihydro-2-pyrazinecarboxamide]: the inhibition at 10 µg/mL in assay [1] was found to be 47%.
Regarding `NC(=O)c1nc(Cl)cn([C@@H]2O[C@H](CO)[C@@H](O)[C@H]2O)c1=O` [Example I-7, 6-chloro-4-[(2R,3R,4S,5R)-3,4-dihydroxy-5-(hydroxymethyl)tetrahydro-2-furanyl]-3-oxo-3,4-dihydro-2-pyrazinecarboxamide], the inhibition at 100 µg/mL in assay [1] was 42%.
For the compound `NC(=O)c1nccn(C2C=CC(CO)C2)c1=O` (stereo not drawn) [Example I-8, 4-[4-(hydroxymethyl)-2-cyclopenten-1-yl]-3-oxo-3,4-dihydro-2-pyrazinecarboxamide], in assay [1], the inhibition at 100 µg/mL is 42%.
On to `NC(=O)c1nccn([C@@H]2CO[C@H](CO)[C@@H](O)C2)c1=O` [Example I-9, 4-[(3S,5S,6R)-5-hydroxy-6-(hydroxymethyl)tetrahydro-2H-pyran-3-yl]-3-oxo-3,4-dihydro-2-pyrazinecarboxamide], for which the inhibition at 100 µg/mL in assay [1] amounted to 31%.
Same read-out and setting: the same measure for `NC(=O)c1nccn([C@@H]2CO[C@H](CO)[C@@H](O)[C@H]2O)c1=O` [Example I-10, 4-[(3R,4S,5S,6R)-4,5-dihydroxy-6-(hydroxymethyl)tetrahydro-2H-pyran-3-yl]-3-oxo-3,4-dihydro-2-pyrazinecarboxamide]: 26%; for `NC(=O)c1nccn([C@@H]2O[C@H](COP(=O)(O)O)[C@@H](O)[C@H]2O)c1=O` [Example I-12, {(2R,3S,4R,5R)-5-[3-(aminocarbonyl)-2-oxo-1(2H)-pyrazinyl]-3,4-dihydroxytetrahydro-2-furanyl}methyl dihydrogen phosphate]: 28%.
Same read-out and setting: the same measure for `NC(=O)c1nccn([C@@H]2O[C@H](COP(=O)(OCc3ccccc3)OCc3ccccc3)[C@@H](O)[C@H]2O)c1=O` [Example I-13, {(2R,3S,4R,5R)-5-[3-(aminocarbonyl)-2-oxo-1(2H)-pyrazinyl]-3,4-dihydroxytetrahydro-2-furanyl}methyl dibenzyl phosphate]: 39%.
Consider `CC(=O)OC[C@H]1O[C@@H](n2ccnc(C(=N)N)c2=O)[C@H](OC(C)=O)[C@@H]1OC(C)=O` [Example I-14, (2R,3R,4R,5R)-4-(acetyloxy)-2-[(acetyloxy)methyl]-5-[3-[amino(imino)methyl]-2-oxo-1(2H)-pyrazinyl]tetrahydro-3-furanyl acetate], for which, in assay [3], the anti-RS virus activity result is “shows an anti-RS virus activity”.
